Data taken from US20240239861A1, “GLUCAGON-RECEPTOR SELECTIVE POLYPEPTIDES AND METHODS OF USE THEREOF” (i2O Therapeutics, Inc., priority 2016, published 2024).
Where a SMILES comes first, the peptide text is derived from it. [ ]: non-standard residue; d: D form. Aib = CC(C)(N)C(=O)O

biological target: human GLP-1R (Homo sapiens, UniProt P43220); assay: Peptide-receptor mediated cAMP accumulation (LANCE Ultra cAMP) in CHO-K1 cells transfected with human GLP-1R; format: cell-based; settings: hGLP1 pEC50 (cAMP mean (n = 3): 11 point curve starting at 1 nM, Table 3)
Sequence (P43220 24-463): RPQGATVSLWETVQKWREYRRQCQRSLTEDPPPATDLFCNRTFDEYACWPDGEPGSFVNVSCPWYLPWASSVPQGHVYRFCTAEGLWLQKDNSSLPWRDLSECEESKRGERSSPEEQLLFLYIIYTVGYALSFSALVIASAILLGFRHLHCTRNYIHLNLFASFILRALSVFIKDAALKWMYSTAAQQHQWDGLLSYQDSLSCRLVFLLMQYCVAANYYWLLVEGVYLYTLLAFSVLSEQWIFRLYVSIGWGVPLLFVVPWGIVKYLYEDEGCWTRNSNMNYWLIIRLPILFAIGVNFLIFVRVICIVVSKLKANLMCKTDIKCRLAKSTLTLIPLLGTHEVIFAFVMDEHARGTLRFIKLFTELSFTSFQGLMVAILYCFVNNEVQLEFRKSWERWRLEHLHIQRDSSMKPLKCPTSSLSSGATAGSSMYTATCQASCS

| EC50 [nM] | Structure (SMILES) |
| --- | --- |
| > 1 | CC(C)C[C@H](NC(=O)[C@H](Cc1ccc(O)cc1)NC(=O)[C@H](CCCCN)NC(=O)[C@H](CO)NC(=O)[C@H](Cc1ccc(O)cc1)NC(=O)[C@H](CC(=O)O)NC(=O)[C@H](CO)NC(=O)[C@@H](NC(=O)[C@H](Cc1ccccc1)NC(=O)[C@@H](NC(=O)CNC(=O)[C@H](Cc1c[nH]cn1)NC(=O)[C@H](CO)NC(=O)[C@@H](N)Cc1ccc(O)cc1)[C@@H](C)O)[C@@H](C)O)C(=O)N[C@@H](CC(=O)O)C(=O)N[C@@H](C)C(=O)N[C@@H](C)C(=O)N[C@@H](CCCNC(=N)N)C(=O)N[C@@H](C)C(=O)N[C@@H](CCC(N)=O)C(=O)N[C@@H](CCC(=O)O)C(=O)N[C@@H](Cc1ccccc1)C(=O)N[C@H](C(=O)N[C@@H](CCCCN)C(=O)N[C@@H](Cc1c[nH]c2ccccc12)C(=O)N[C@@H](CC(C)C)C(=O)N[C@@H](CCC(=O)O)C(=O)N[C@@H](CC(=O)O)C(=O)N[C@@H](CCC(=O)O)C(=O)N1CCC[C@H]1C(=O)N[C@@H](CCCCN)C(=O)N[C@@H](CO)C(=O)N[C@@H](CCCCN)C(=O)N[C@@H](CO)C(=O)N1CCC[C@H]1C(=O)N1CCC[C@H]1C(=O)N1CCC[C@H]1C(=O)N[C@@H](CO)C(N)=O)C(C)C [Compound A80] (H-YSHGTFTSDYSKYLDAARAQEFVKWLEDEPKSKSPPPS-NH2; N-terminus assumed) |
| > 1 | CC(C)C[C@H](NC(=O)[C@H](Cc1ccc(O)cc1)NC(=O)[C@H](CCCCN)NC(=O)[C@H](CO)NC(=O)[C@H](Cc1ccc(O)cc1)NC(=O)[C@H](CC(=O)O)NC(=O)[C@H](CO)NC(=O)[C@@H](NC(=O)[C@H](Cc1ccccc1)NC(=O)[C@@H](NC(=O)CNC(=O)[C@H](Cc1c[nH]cn1)NC(=O)[C@H](CO)NC(=O)[C@@H](N)Cc1ccc(O)cc1)[C@@H](C)O)[C@@H](C)O)C(=O)N[C@@H](CC(=O)O)C(=O)NC(C)(C)C(=O)N[C@@H](CCCCN)C(=O)N[C@@H](CCCNC(=N)N)C(=O)N[C@@H](C)C(=O)N[C@@H](CCC(N)=O)C(=O)N[C@@H](CCC(=O)O)C(=O)N[C@@H](Cc1ccccc1)C(=O)N[C@H](C(=O)NC(C)(C)C(=O)N[C@@H](Cc1c[nH]c2ccccc12)C(=O)N[C@@H](CC(C)C)C(=O)N[C@@H](CCC(=O)O)C(=O)N[C@@H](CC(=O)O)C(=O)N[C@@H](CCC(=O)O)C(=O)N1CCC[C@H]1C(=O)N[C@@H](CO)C(=O)N[C@@H](CO)C(=O)NCC(=O)N[C@@H](CCCCN)C(=O)N1CCC[C@H]1C(=O)N1CCC[C@H]1C(=O)N1CCC[C@H]1C(=O)N[C@@H](CO)C(N)=O)C(C)C [Compound A85] (H-YSHGTFTSDYSKYLD[Aib]KRAQEFV[Aib]WLEDEPSSGKPPPS-NH2; N-terminus assumed) |
| > 1 | CC(C)C[C@H](NC(=O)[C@H](Cc1ccc(O)cc1)NC(=O)[C@H](CCCCN)NC(=O)[C@H](CO)NC(=O)[C@H](Cc1ccc(O)cc1)NC(=O)[C@H](CC(=O)O)NC(=O)[C@H](CO)NC(=O)[C@@H](NC(=O)[C@H](Cc1ccccc1)NC(=O)[C@@H](NC(=O)CNC(=O)[C@H](Cc1c[nH]cn1)NC(=O)[C@H](CO)NC(=O)[C@@H](N)Cc1ccc(O)cc1)[C@@H](C)O)[C@@H](C)O)C(=O)N[C@@H](CC(=O)O)C(=O)NC(C)(C)C(=O)N[C@@H](CCCCN)C(=O)N[C@@H](CCCNC(=N)N)C(=O)N[C@@H](C)C(=O)N[C@@H](CCC(N)=O)C(=O)N[C@@H](CCC(=O)O)C(=O)N[C@@H](Cc1ccccc1)C(=O)N[C@H](C(=O)NC(C)(C)C(=O)N[C@@H](Cc1c[nH]c2ccccc12)C(=O)N[C@@H](CC(C)C)C(=O)N[C@@H](CCC(=O)O)C(=O)N[C@@H](CC(=O)O)C(=O)N[C@@H](CCC(=O)O)C(=O)N[C@@H](CCCCN)C(=O)N[C@@H](CO)C(=O)N[C@@H](CO)C(=O)NCC(=O)N[C@@H](CCCCN)C(=O)N1CCC[C@H]1C(=O)N1CCC[C@H]1C(=O)N1CCC[C@H]1C(=O)N[C@@H](CO)C(=O)O)C(C)C [Compound A87] (H-YSHGTFTSDYSKYLD[Aib]KRAQEFV[Aib]WLEDEKSSGKPPPS-OH; N-terminus assumed) |
| > 1 | CC(C)C[C@H](NC(=O)[C@H](Cc1ccc(O)cc1)NC(=O)[C@H](CCCCN)NC(=O)[C@H](CO)NC(=O)[C@H](Cc1ccc(O)cc1)NC(=O)[C@H](CC(=O)O)NC(=O)[C@H](CO)NC(=O)[C@@H](NC(=O)[C@H](Cc1ccccc1)NC(=O)[C@@H](NC(=O)CNC(=O)[C@H](Cc1c[nH]cn1)NC(=O)[C@H](CO)NC(=O)[C@@H](N)Cc1ccc(O)cc1)[C@@H](C)O)[C@@H](C)O)C(=O)N[C@@H](CC(=O)O)C(=O)NC(C)(C)C(=O)N[C@@H](CCCCN)C(=O)N[C@@H](CCCNC(=N)N)C(=O)N[C@@H](C)C(=O)N[C@@H](CCC(N)=O)C(=O)N[C@@H](CCC(=O)O)C(=O)N[C@@H](Cc1ccccc1)C(=O)N[C@H](C(=O)NC(C)(C)C(=O)N[C@@H](Cc1c[nH]c2ccccc12)C(=O)N[C@@H](CC(C)C)C(=O)N[C@@H](CCC(=O)O)C(=O)N[C@@H](CC(=O)O)C(=O)N[C@@H](CCC(=O)O)C(=O)N1CCC[C@H]1C(=O)N[C@@H](CO)C(=O)N[C@@H](CO)C(=O)NCC(=O)N[C@@H](CCCCN)C(=O)N[C@@H](CCCCN)C(=O)N1CCC[C@H]1C(=O)N1CCC[C@H]1C(=O)N[C@@H](CO)C(=O)O)C(C)C [Compound A88] (H-YSHGTFTSDYSKYLD[Aib]KRAQEFV[Aib]WLEDEPSSGKKPPS-OH) |
| > 1 | CC(C)C[C@H](NC(=O)[C@H](Cc1ccc(O)cc1)NC(=O)[C@H](CCCCN)NC(=O)[C@H](CO)NC(=O)[C@H](Cc1ccc(O)cc1)NC(=O)[C@H](CC(=O)O)NC(=O)[C@H](CO)NC(=O)[C@@H](NC(=O)[C@H](Cc1ccccc1)NC(=O)[C@@H](NC(=O)CNC(=O)[C@H](Cc1c[nH]cn1)NC(=O)[C@H](CO)NC(=O)[C@@H](N)Cc1ccc(O)cc1)[C@@H](C)O)[C@@H](C)O)C(=O)N[C@@H](CC(=O)O)C(=O)NC(C)(C)C(=O)N[C@@H](CCCCN)C(=O)N[C@@H](CCCNC(=N)N)C(=O)N[C@@H](C)C(=O)N[C@@H](CCC(N)=O)C(=O)N[C@@H](CCC(=O)O)C(=O)N[C@@H](Cc1ccccc1)C(=O)N[C@H](C(=O)NC(C)(C)C(=O)N[C@@H](Cc1c[nH]cn1)C(=O)N[C@@H](CC(C)C)C(=O)N[C@@H](CCC(=O)O)C(=O)N[C@@H](CC(=O)O)C(=O)N[C@@H](CCC(=O)O)C(=O)N1CCC[C@H]1C(=O)N[C@@H](CO)C(=O)N[C@@H](CO)C(=O)NCC(=O)N[C@@H](CCCCN)C(=O)N1CCC[C@H]1C(=O)N1CCC[C@H]1C(=O)N1CCC[C@H]1C(=O)N[C@@H](CO)C(=O)O)C(C)C [Compound A89] (H-YSHGTFTSDYSKYLD[Aib]KRAQEFV[Aib]HLEDEPSSGKPPPS-OH; N-terminus assumed) |
